Source: patent US20260034135A1, “USE OF N6-BENZYLAMINOPURINE AS AN APPETITE SUPPRESSANT” (THE GOVERNING COUNCIL OF THE UNIVERSITY OF TORONTO, priority 2022, published 2026)

Tests used:
Format in all cases: cell-based, mouse
AMPK = AMPK phosphorylation by Western blot in mHypoE-46; details: 500 μM AICAR, 15 min, mHypoE-46, positive control
Description: mHypoE-46 cells were serum starved in 5.5 mM glucose (LG) DMEM for 1 hour prior to treatment with vehicle (0.1% DMSO), 100 µM BAP or H20, […] 5-Aminoimidazole-4-carboxamide ribonucleotide (AICAR) or 0 mM glucose DMEM. Protein was harvested using 1× cell lysis buffer (Cell Signaling Technologies, Inc, CST) containing protease and phosphatase inhibitors. A total of 30 μg protein was separated on a 12% SDS-polyacrylamide gels and transferred onto PVDF membranes. Membranes were blocked in 5% milk dissolved in Tris-buffered saline with Tween 20 (TBS-T) for 1 h and incubated with primary antibody overnight at 4° C. phospho-AMPKα (Thr172; cat. 2532S, CST), and total AMPKα (cat. 2535S, CST); phospho-p70-S6K (Thr389; cat. 9205S, CST) and total p70-S6K (cat. 9202S, CST); insulin receptor ß (cat. 3025S, CST); phospho-AKT (Ser473; cat. 9271S, CST) and total AKT (cat. 9272S, CST); phospho-ERK1/2 (Thr202/Tyr204; cat. 9101, CST) and total ERK (cat. 4695, CST) were diluted 1:1000 in 5% milk in TBS-T. Membranes were washed and incubated with secondary HRP-linked antirabbit antibody (1:7500 in 5% milk in TBS-T, CST) for 1 h, washed, and imaged using the Signal Fire ECL Reagent (CST) on the iBright 1500 Imaging System (Thermofisher). Protein density was quantified using ImageJ or the iBright Imaging System.

mHypoE-46 cell line = assay: Gene expression by qRT-PCR in mHypoE-46 hypothalamic cell line; details: for Npy expression: 16 hr
Description: (§1) Hypothalamic neurons from embryonic and adult mice were previously immortalized to generate the clonal cell lines mHypoE-46, mHypoE-44, mHypoE-41, mHypoE-38, mHypoA-59, a FAC-sorted POMC/GFP mouse-derived cell line, mHypoA-POMC/GFP-2, and a mixed culture mHypoA-Bmal1-WT/F cell line (6, 13, 14). The mHypoE-46, mHypoE-44, and mHypoA-Bmal1-WT/F lines were cultured in DMEM containing 1000 mg/L glucose supplemented with 5% FBS and 1% pen/strep. The mHypoE-41, mHypoE-38, and mHypoA-59 cell lines were cultured in DMEM containing 4500 mg/L glucose supplemented with 2% FBS and 1% pen/strep. The mHypoA-POMC/GFP-2 line was cultured in DMEM containing 1000 mg/L glucose supplemented with 2% FBS and 1% pen/strep. All cells were maintained in 5% CO2 at 37° C. BAP was initially dissolved in DMSO solvent (vehicle control) to achieve 1000x the intended dose. The BAP solution was then diluted 1:1000 with the growth media used for the cell line. For co-treatment experiments, the vehicle control for ATP, UDP, and PKI was water, and for the H89 PKA inhibitor was DMSO. Neuropeptide gene expression levels were determined by qRT-PCR.
(§2) For cell culture experiments, total RNA was isolated using PureLink RNA isolation kit (Thermofisher Scientific, Burlington, ON, Canada) according to the manufacturer's instruction with on column DNase step (PureLink DNAse kit) or DNase I treatment to remove genomic DNA. For mouse experiments, total RNA was isolated using mirVana PARIS RNA and native protein isolation kit (Thermofisher Scientific). RNA quality and quantity were measured using Nanodrop 2000 and 500-1000 ng of complimentary DNA (cDNA) was synthesized with High Capacity cDNA Reverse Transcription kit (Applied biosystems, Thermofisher Scientific). Quantitative reverse transcription polymerase chain reaction (RT-qPCR) was performed with 12.5 ng of cDNA amplified with Platinum SYBR green qPCR SuperMix-UDG with ROX on an Applied Biosystems Prism 7900HT or PowerTrack Green Master Mix on an Applied Biosystems QuantStudio 5 and gene specific primers as per manufacturer's instructions (Table 1). Data was analyzed using […] and normalized to reference gene, either 60S ribosomal protein L7 (Rpl7) or Histone 3a (His).

mHypoE-44 cell line = assay: Gene expression by qRT-PCR in mHypoE-44 hypothalamic cell line; details: 16 hr
Description: as §1, §2

mHypoE-41 cell line = assay: Gene expression by qRT-PCR in mHypoE-41 hypothalamic cell line; details: 100 μM ATP, 16 hr
Description: as §1, §2

mHypoA-59 cell line = assay: Gene expression by qRT-PCR in mHypoA-59 hypothalamic cell line; details: ATP (data not shown)
Description: as §1, §2

NC(=O)c1ncn([C@@H]2O[C@H](COP(=O)(O)O)[C@@H](O)[C@H]2O)c1N [AICAR, 5-Aminoimidazole-4-carboxamide ribonucleotide, reference compound]
AMPK phosphorylation (activation) vs vehicle (AMPK): significantly activate AMPK

O=c1ccn([C@@H]2O[C@H](COP(=O)(O)OP(=O)(O)OP(=O)(O)O)[C@@H](O)[C@H]2O)c(=O)[nH]1 [UTP, reference compound]
Npy expression (mHypoE-46 cell line; 100 μM UTP, n=2 preliminary): no effect
basal Npy expression (mHypoE-44 cell line; 100 μM UTP, n=2 preliminary): may decrease the basal expression of Npy

O=c1ccn([C@@H]2O[C@H](COP(=O)(O)OP(=O)(O)O)[C@@H](O)[C@H]2O)c(=O)[nH]1 [UDP, reference compound]
Npy expression (mHypoE-46 cell line; 100 μM UDP): no effect
Npy expression (mHypoE-44 cell line; 100 μM UDP): unable to affect the expression of Npy

Nc1ncnc2c1ncn2[C@@H]1O[C@H](COP(=O)(O)OP(=O)(O)OP(=O)(O)O)[C@@H](O)[C@H]1O [ATP, reference compound]
Npy expression (mHypoE-41 cell line): induces the expression of Npy
Npy expression (mHypoE-46 cell line; 100 μM ATP): induces the expression of Npy
Agrp expression (mHypoA-59 cell line): increased
Npy expression (mHypoA-59 cell line): increased
Npy expression (mHypoE-44 cell line; 100 μM ATP): induces the expression of Npy

c1coc(CNc2ncnc3[nH]cnc23)c1 [kinetin]
repression of Npy transcripts (mHypoE-46 cell line; 100 μM kinetin, 16 h, n=2 preliminary): ~50%
